Drawing on BindingDB's records for doi:10.1016/j.bmc.2013.10.018 (Baylor College of Medicine, 2014), this text covers IC50 for one compound.

Assay [1] deals with T1, Signal transducer and activator of transcription 3 (Homo sapiens, UniProt P40763). Nature of the assay: Inhibition of Stat3 phosphorylation in human MDA-MB-231 cells by Western blotting analysis in hypoxia condition.
Assay [2] addresses T1, Signal transducer and activator of transcription 3. As to the kind of experiment: Inhibition of Stat3 phosphorylation in human OVCAR3 cells by Western blotting analysis in normoxia condition. A general note: In western blotting, separated proteins are transferred to a membrane and probed.
The target in assay [3] is T2, Hypoxia-inducible factor 1-alpha (Homo sapiens, UniProt Q16665). Nature of the assay: Inhibition of HIF-1 alpha in human MDA-MB-231 cells by Western blotting analysis in hypoxia condition.
Assay [4] addresses T1, Signal transducer and activator of transcription 3. As to the kind of experiment: Inhibition of Stat3 phosphorylation in human OVCAR3 cells by Western blotting analysis in hypoxia condition.
The target is the same in assay [5]. Nature of the assay: Inhibition of Stat3 phosphorylation in human PANC1 cells by Western blotting analysis in hypoxia condition.
For assay [6] the target is unchanged. Nature of the assay: Inhibition of Stat3 phosphorylation in human MDA-MB-468 cells by Western blotting analysis in normoxia condition.
The target is the same in assay [7]. As to the kind of experiment: Inhibition of Stat3 phosphorylation in human MDA-MB-231 cells by Western blotting analysis in normoxia condition.
Assay [8] concerns the target T2, Hypoxia-inducible factor 1-alpha. Nature of the assay: Inhibition of HIF-1 alpha in human PANC1 cells by Western blotting analysis in hypoxia condition.
Assay [9] has the same target. As to the kind of experiment: Inhibition of HIF-1 alpha in human MDA-MB-468 cells by Western blotting analysis in hypoxia condition.
Assay [10] concerns the target T1, Signal transducer and activator of transcription 3. Nature of the assay: Inhibition of Stat3 phosphorylation in human MDA-MB-468 cells by Western blotting analysis in hypoxia condition.
In assay [11] the target is T2, Hypoxia-inducible factor 1-alpha. Nature of the assay: Inhibition of HIF-1 alpha in human OVCAR3 cells by Western blotting analysis in hypoxia condition.
Assay [12] has as its target T1, Signal transducer and activator of transcription 3. As to the kind of experiment: Inhibition of Stat3 phosphorylation in human PANC1 cells by Western blotting analysis in normoxia condition.

T2 sequence (Q16665 whole entry): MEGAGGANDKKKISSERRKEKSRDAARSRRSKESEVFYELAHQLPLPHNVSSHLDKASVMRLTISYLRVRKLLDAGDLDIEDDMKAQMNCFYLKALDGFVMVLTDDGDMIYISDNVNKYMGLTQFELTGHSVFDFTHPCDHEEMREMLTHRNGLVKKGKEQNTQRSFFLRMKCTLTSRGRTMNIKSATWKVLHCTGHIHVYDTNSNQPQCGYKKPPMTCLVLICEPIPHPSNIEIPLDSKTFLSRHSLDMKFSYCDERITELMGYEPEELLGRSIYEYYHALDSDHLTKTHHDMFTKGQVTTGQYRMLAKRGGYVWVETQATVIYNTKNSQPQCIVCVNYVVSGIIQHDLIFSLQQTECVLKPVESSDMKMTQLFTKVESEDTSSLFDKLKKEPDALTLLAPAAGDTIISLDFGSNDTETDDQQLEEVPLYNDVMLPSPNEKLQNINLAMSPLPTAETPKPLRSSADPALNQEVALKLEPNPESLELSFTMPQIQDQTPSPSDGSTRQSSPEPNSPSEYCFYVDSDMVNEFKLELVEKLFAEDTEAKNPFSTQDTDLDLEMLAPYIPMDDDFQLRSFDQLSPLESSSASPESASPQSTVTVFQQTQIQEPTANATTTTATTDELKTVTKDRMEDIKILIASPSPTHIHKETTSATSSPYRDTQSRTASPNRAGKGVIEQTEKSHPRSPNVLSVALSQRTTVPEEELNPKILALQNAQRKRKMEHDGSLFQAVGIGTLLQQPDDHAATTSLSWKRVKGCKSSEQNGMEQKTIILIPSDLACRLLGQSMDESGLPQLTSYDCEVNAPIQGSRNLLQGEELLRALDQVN
T1 sequence (P40763 whole entry): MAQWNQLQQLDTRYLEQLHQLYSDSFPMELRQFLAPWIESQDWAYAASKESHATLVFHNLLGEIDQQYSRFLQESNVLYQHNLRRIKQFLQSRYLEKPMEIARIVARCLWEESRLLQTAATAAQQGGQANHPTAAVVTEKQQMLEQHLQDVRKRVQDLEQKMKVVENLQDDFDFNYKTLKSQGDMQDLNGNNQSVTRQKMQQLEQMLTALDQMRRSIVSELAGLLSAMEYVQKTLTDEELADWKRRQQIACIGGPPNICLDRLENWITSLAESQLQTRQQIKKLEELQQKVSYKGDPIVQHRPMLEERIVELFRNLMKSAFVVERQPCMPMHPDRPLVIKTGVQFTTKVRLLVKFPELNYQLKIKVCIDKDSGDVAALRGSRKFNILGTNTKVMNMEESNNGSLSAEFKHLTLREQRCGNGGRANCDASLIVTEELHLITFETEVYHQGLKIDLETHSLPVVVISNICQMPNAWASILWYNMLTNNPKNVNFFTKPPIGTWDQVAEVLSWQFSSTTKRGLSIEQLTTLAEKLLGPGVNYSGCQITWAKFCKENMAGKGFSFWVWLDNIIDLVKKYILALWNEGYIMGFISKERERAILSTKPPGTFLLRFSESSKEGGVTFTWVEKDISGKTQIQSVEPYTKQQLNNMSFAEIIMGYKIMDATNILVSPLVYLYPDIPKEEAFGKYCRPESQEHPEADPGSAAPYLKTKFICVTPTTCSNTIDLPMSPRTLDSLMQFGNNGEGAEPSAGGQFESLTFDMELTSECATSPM

For the compound `CN(C)CCCN1C(=O)c2ccc3c4ccc5c6c(ccc(c7ccc(c2c37)C1=O)c64)C(=O)N(CCCN(C)C)C5=O`, the IC50 worked out at 4.5 µM in [1]; 4.5 µM in assay [2]; 3 µM in assay [3]; 4.5 µM in assay [4]; 4.5 µM in assay [5]; 4.5 µM in assay [6]. For the same compound, the IC50 in assay [7] is 4.5 µM; in [8] it was 3 µM; in assay [9] it was 3 µM; in assay [10] it was 4.5 µM; in [11] it was 3 µM; in assay [12] it was 4.5 µM.

For orientation: IC50 means the concentration that inhibits the measured activity by half. Low readings indicate inhibition by little substance, high ones a need for much substance.
